From US20220041691A1, “METHODS FOR DIAGNOSING OR TREATING POST-TRAUMATIC STRESS DISORDER, AND COMPOSITIONS THEREFOR” (Centre for Addiction and Mental Health, priority 2018, published 2022)

Experiments:
fear-conditioned mice = assay: Cued fear conditioning, systemic (i.p.) peptide delivery; assay type: in vivo, mouse; details: p<0.05
Experimental: Next, testing was performed to determine whether TAT-GRpep can block the emergence of PTSD-like fear-related behaviours when administrated systemically. Animals underwent five rounds of CS-US pairings followed by 5 days of extinction training before the expression of fear in response to the learned cue was assessed (FIG. 4A). Mice were injected with either TAT-GRpep or TAT intraperitoneally (3 nmol/g, i.p.) one hour before the test.
Furthermore, testing was performed to determine whether disrupting the GR-FKBP51 complex reduced consolidation of cued fear memory. Thus, TAT or TAT-GRpep was administered two hours after the end of fear conditioning training (FIG. 4C), before five consecutive daily extinction sessions of cue exposure without shock. […] This may therefore indicate a potential approach to both preventing and treating PTSD-like behaviour in the aftermath of trauma, for example.
Animals were first given a five-minute habituation to the apparatus (Habitest, Colbourne Instruments). Then, animals were exposed to 30 seconds of cue exposure (an in-house white light), which co-terminated with one second of foot-shock (0.5 mA). The cue exposure and foot-shock were repeated five times, intermitted by 5-minute inter-trial intervals. Following the conditioning, animals were subjected to 2-5 days of extinction before the assessment of their cued fear memory, which consisted of 15 rounds of 30-second cue exposure, with 30-second inter-trial intervals (adapted from Andero et al.).^48
The expression of fear (in a different context from training) was assessed 24 hours after the last extinction training. The assessment consisted of a three-minute period of habituation (absence of CS) and a sequent three-minute trial of conditioned cues. The duration of freezing behaviors was recorded by a blinded experimenter. Peptide treatment was either administered 2 hours after the conditioning or 30 minutes before the behavioral assessment.

GR-FKBP51 complex = target: T1, GR-FKBP51 complex (Mus musculus, UniProt Q64378); assay: Co-immunoprecipitation of GR-FKBP51 complex in brain and lymphocyte lysate of fear-conditioned mice injected with peptide; assay type: in vivo; details: brain lysate of fear-conditioned mice injected with TAT or TAT-GRpep; p<0.05, n=3
T1 construct: from tissue; host or cells: C57Bl/6 mouse brain (acute slices; whole-brain lysate) and blood lymphocytes
T1 sequence (Q64378 1-456): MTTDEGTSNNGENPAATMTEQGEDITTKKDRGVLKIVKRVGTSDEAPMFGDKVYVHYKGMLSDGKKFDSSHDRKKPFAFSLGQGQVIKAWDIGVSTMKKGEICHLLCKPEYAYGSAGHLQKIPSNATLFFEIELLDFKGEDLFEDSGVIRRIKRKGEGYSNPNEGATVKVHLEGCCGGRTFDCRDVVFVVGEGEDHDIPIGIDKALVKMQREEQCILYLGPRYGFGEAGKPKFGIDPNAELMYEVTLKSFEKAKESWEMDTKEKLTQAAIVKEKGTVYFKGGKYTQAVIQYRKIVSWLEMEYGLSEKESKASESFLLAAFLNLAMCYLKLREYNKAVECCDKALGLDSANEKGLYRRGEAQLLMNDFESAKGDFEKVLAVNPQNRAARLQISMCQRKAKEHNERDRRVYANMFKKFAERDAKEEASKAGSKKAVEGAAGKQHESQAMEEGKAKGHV
Experimental: Furthermore, testing was performed to determine whether disrupting the GR-FKBP51 complex reduced consolidation of cued fear memory. Thus, TAT or TAT-GRpep was administered two hours after the end of fear conditioning training (FIG. 4C), before five consecutive daily extinction sessions of cue exposure without shock.
(§1) Co-immunoprecipitation and Western blot analyses were performed as previously described.^24, 25, 26 For co-immunoprecipitation, 500˜1000 μg solubilized protein was extracted from whole mouse brain and incubated with primary antibody or control IgG (2˜4 μg) for 4 hrs at 4° C., followed by the addition of 25 μl protein A/G plus agarose (Santa Cruz Biotechnology) for 12 hrs. Pellets were washed, boiled for 5 min in SDS sample buffer and subjected to SDS-PAGE. 50˜100 μg of total protein extract was used as control in each experiment. After transfer of proteins into nitrocellulose, membranes were Western blotted with the primary antibodies. The intensity of protein level was quantified by densitometry (software: ImageLab, Bio-Rad).

[1] = system: GR phosphorylation at S211; assay: Western blot of GR phosphorylation at S211 in brain lysate of fear-conditioned mice; assay type: in vivo, mouse; details: brain lysate of fear-conditioned mice injected with TAT or TAT-GRpep; p<0.05, n=3
Text: To further investigate these findings, surface plasmon resonance (SPR) was used to estimate association and dissociation rates between GR and FKBP51. […] Thus, GR S211 phosphorylation seems to reduce GR affinity for FKBP51. Conversely, disruption of the GR-FKBP51 complex with TAT-GRpep could increase GR S211 phosphorylation, which is what was observed when comparing fear-conditioned mice treated with TAT-GRpep vs. TAT control or no treatment (FIG. 5 I-J).
as §1, with “Bio-Rad). […]” for “Bio-Rad).”

[2] = system: GR and FKBP52 colocalization in primary neurons; assay: Immunocytochemistry of GR and FKBP52 in primary mouse neurons; assay type: cell-based; details: primary neurons 8 DIV, 10 μM, 45 min
Experimental: Cortical tissues from embryonic day (E14) mouse brains were dissected out, incubated with 0.25% trypsin for 15 min at 37° C., and dissociated by mechanical trituration. Neurons were then plated at a desired density onto glass coverslips previously coated with 0.1 mg/ml poly-d-lysine, and grown in Neurobasal medium with 1× Glutamax, 1×B27, 100 U/ml penicillin and 100 μg/ml streptomycin in an incubator (37° C., 5% CO2). Either 10 μM of TAT-GRpep, 10 μM TAT-control peptide or saline were added in culture plates for 45 min in advance at 8 days in vitro (8 DIV).
Cultured neurons were fixed in 4% PFA/4% sucrose, permeabilized with 0.1M PBS containing 0.1% Triton X-100 for 10 min, and blocked for 1 hour with 1% bovine serum albumin in PBS at room temperature. They were incubated with primary antibodies overnight at 4° C. and secondary antibodies for 1 hour at room temperature. The following primary antibodies were used: anti-GR (1:200; Thermo), anti-FKBP51 (1:200; Abcam) and anti-FKBP52 (1:200; Abcam). […] DAPI was used to stain cell nuclei.

## TAT: control peptide: cell-membrane transduction domain of the human immunodeficiency virus-type 1 TAT protein (GRKKRRQRRRPQ; Amino Acid Sequence of the Cell-Membrane Transduction Domain of HIV-Type 1 Transactivator of Transcription (TAT) Protein) [reference compound]
fear-conditioned mice; 3 nmol/g i.p. one hour before the test, after 5 days of extinction training, three-minute cue trial
  duration of freezing with the CS: 64.2 ± 10.7 s
fear-conditioned mice; peptide administered two hours after end of fear conditioning, tested 24 hours after last of five daily extinction sessions
  duration of freezing with the CS (consolidation of cued fear memory): 71.0 ± 3.6 s
GR-FKBP51 complex
  GR-FKBP51 complex level in brain (co-immunoprecipitation): not
[1]
  GR phosphorylation at S211: not
[2]
  nuclear GR-FKBP52 colocalization: almost negligible amount of GR-FKBP52 complex
